System: 12 single or co-culture in vitro tissue models of primary cells
Experiment: Culture/co-culture cell model panel, extracellular biomarkers (DiscoveRx); as to CCL2/MCP-1: reference of the scale not given here; as to CD141/Thrombomodulin: reference of the scale not given here; as to CD142/Tissue Factor: reference of the scale not given here; as to CXCL8/IL-8: reference of the scale not given here; as to CXCL9/MIG: reference of the scale not given here; as to M-CSF: reference of the scale not given here; as to SRB: reference of the scale not given here
Type: cell-based, human
[1] = /HDFNo unstimulated fibroblasts, 1.00E0 nM
[2] = /HDFNo unstimulated fibroblasts, 1.00E1 nM
[3] = /HDFNo unstimulated fibroblasts, 1.00E2 nM
[4] = /HDFNo unstimulated fibroblasts, 1.00E3 nM
[5] = /HDFNo unstimulated fibroblasts, 1.00E4 nM

CN1c2ccc(-c3cncc(Cl)c3N3CCC4(CC3)CNC(=O)O4)cc2CS1(=O)=O [CMPD2]
CCL2/MCP-1 (3C, 1.00E0 nM): 0.00665
CD54/ICAM-1 (3C, 1.00E0 nM): -0.015
CD87/uPAR (3C, 1.00E0 nM): -0.232
CD106/VCAM-1 (3C, 1.00E0 nM): 0.040
CD141/Thrombomodulin (3C, 1.00E0 nM): 0.035
CD142/Tissue Factor (3C, 1.00E0 nM): 0.086
CXCL8/IL-8 (3C, 1.00E0 nM): 0.001
CXCL9/MIG (3C, 1.00E0 nM): -0.002
HLA-DR (3C, 1.00E0 nM): -0.059
Proliferation (3C, 1.00E0 nM): -0.0027
SRB (3C, 1.00E0 nM): -0.057
CCL2/MCP-1 (3C, 1.00E1 nM): -0.088
CD54/ICAM-1 (3C, 1.00E1 nM): -0.034
CD87/uPAR (3C, 1.00E1 nM): -0.339
CD106/VCAM-1 (3C, 1.00E1 nM): 0.048
CD141/Thrombomodulin (3C, 1.00E1 nM): 0.056
CD142/Tissue Factor (3C, 1.00E1 nM): 0.130
CXCL8/IL-8 (3C, 1.00E1 nM): -0.104
CXCL9/MIG (3C, 1.00E1 nM): -0.011
HLA-DR (3C, 1.00E1 nM): -0.129
Proliferation (3C, 1.00E1 nM): -0.036
SRB (3C, 1.00E1 nM): -0.071
CCL2/MCP-1 (3C, 1.00E2 nM): -0.157
CD54/ICAM-1 (3C, 1.00E2 nM): -0.046
CD87/uPAR (3C, 1.00E2 nM): -0.368
CD106/VCAM-1 (3C, 1.00E2 nM): 0.046
CD141/Thrombomodulin (3C, 1.00E2 nM): 0.051
CD142/Tissue Factor (3C, 1.00E2 nM): 0.120
CXCL8/IL-8 (3C, 1.00E2 nM): -0.212
CXCL9/MIG (3C, 1.00E2 nM): -0.016
HLA-DR (3C, 1.00E2 nM): -0.138
Proliferation (3C, 1.00E2 nM): -0.098
SRB (3C, 1.00E2 nM): -0.085
CCL2/MCP-1 (3C, 1.00E3 nM): -0.150
CD54/ICAM-1 (3C, 1.00E3 nM): -0.055
CD87/uPAR (3C, 1.00E3 nM): -0.368
CD106/VCAM-1 (3C, 1.00E3 nM): 0.045
CD141/Thrombomodulin (3C, 1.00E3 nM): 0.055
CD142/Tissue Factor (3C, 1.00E3 nM): 0.116
CXCL8/IL-8 (3C, 1.00E3 nM): -0.275
CXCL9/MIG (3C, 1.00E3 nM): -0.019
HLA-DR (3C, 1.00E3 nM): -0.153
Proliferation (3C, 1.00E3 nM): -0.074
SRB (3C, 1.00E3 nM): -0.078
CCL2/MCP-1 (3C, 1.00E4 nM): -0.161
CD54/ICAM-1 (3C, 1.00E4 nM): -0.041
CD87/uPAR (3C, 1.00E4 nM): -0.370
CD106/VCAM-1 (3C, 1.00E4 nM): 0.044
CD141/Thrombomodulin (3C, 1.00E4 nM): 0.020
CD142/Tissue Factor (3C, 1.00E4 nM): 0.089
CXCL8/IL-8 (3C, 1.00E4 nM): -0.273
CXCL9/MIG (3C, 1.00E4 nM): -0.019
HLA-DR (3C, 1.00E4 nM): -0.147
Proliferation (3C, 1.00E4 nM): -0.089
SRB (3C, 1.00E4 nM): -0.086
CCL2/MCP-1 (/HDF3CT, 1.00E0 nM): -0.00225
CD54/ICAM-1 (/HDF3CT, 1.00E0 nM): -0.030
CD106/VCAM-1 (/HDF3CT, 1.00E0 nM): 0.019
CXCL8/IL-8 (/HDF3CT, 1.00E0 nM): -0.027
CXCL9/MIG (/HDF3CT, 1.00E0 nM): 0.019
CXCL10/IP-10 (/HDF3CT, 1.00E0 nM): 0.006
Collagen I (/HDF3CT, 1.00E0 nM): -0.00072
M-CSF (/HDF3CT, 1.00E0 nM): 0.017
MMP-1 (/HDF3CT, 1.00E0 nM): 0.072
PAI-I (/HDF3CT, 1.00E0 nM): 0.018
SRB (/HDF3CT, 1.00E0 nM): 0.014
TIMP-2 (/HDF3CT, 1.00E0 nM): 0.034
CCL2/MCP-1 (/HDF3CT, 1.00E1 nM): -0.044
CD54/ICAM-1 (/HDF3CT, 1.00E1 nM): -0.067
CD106/VCAM-1 (/HDF3CT, 1.00E1 nM): 0.019
CXCL8/IL-8 (/HDF3CT, 1.00E1 nM): -0.054
CXCL9/MIG (/HDF3CT, 1.00E1 nM): 0.015
CXCL10/IP-10 (/HDF3CT, 1.00E1 nM): 0.022
Collagen I (/HDF3CT, 1.00E1 nM): -0.038
M-CSF (/HDF3CT, 1.00E1 nM): -0.031
MMP-1 (/HDF3CT, 1.00E1 nM): 0.112
PAI-I (/HDF3CT, 1.00E1 nM): -0.053
SRB (/HDF3CT, 1.00E1 nM): -0.00569
TIMP-2 (/HDF3CT, 1.00E1 nM): 0.057
CCL2/MCP-1 (/HDF3CT, 1.00E2 nM): -0.108
CD54/ICAM-1 (/HDF3CT, 1.00E2 nM): -0.073
CD106/VCAM-1 (/HDF3CT, 1.00E2 nM): 0.009
CXCL8/IL-8 (/HDF3CT, 1.00E2 nM): -0.154
CXCL9/MIG (/HDF3CT, 1.00E2 nM): -0.031
CXCL10/IP-10 (/HDF3CT, 1.00E2 nM): 0.011
Collagen I (/HDF3CT, 1.00E2 nM): -0.041
M-CSF (/HDF3CT, 1.00E2 nM): -0.045
MMP-1 (/HDF3CT, 1.00E2 nM): 0.027
PAI-I (/HDF3CT, 1.00E2 nM): -0.092
SRB (/HDF3CT, 1.00E2 nM): -0.00555
TIMP-2 (/HDF3CT, 1.00E2 nM): 0.013
CCL2/MCP-1 (/HDF3CT, 1.00E3 nM): -0.094
CD54/ICAM-1 (/HDF3CT, 1.00E3 nM): -0.080
CD106/VCAM-1 (/HDF3CT, 1.00E3 nM): -0.001
CXCL8/IL-8 (/HDF3CT, 1.00E3 nM): -0.182
CXCL9/MIG (/HDF3CT, 1.00E3 nM): -0.043
CXCL10/IP-10 (/HDF3CT, 1.00E3 nM): 0.00749
Collagen I (/HDF3CT, 1.00E3 nM): -0.064
M-CSF (/HDF3CT, 1.00E3 nM): -0.064
MMP-1 (/HDF3CT, 1.00E3 nM): 0.014
PAI-I (/HDF3CT, 1.00E3 nM): -0.119
SRB (/HDF3CT, 1.00E3 nM): -0.020
TIMP-2 (/HDF3CT, 1.00E3 nM): 0.052
CCL2/MCP-1 (/HDF3CT, 1.00E4 nM): -0.114
CD54/ICAM-1 (/HDF3CT, 1.00E4 nM): -0.089
CD106/VCAM-1 (/HDF3CT, 1.00E4 nM): 0.006
CXCL8/IL-8 (/HDF3CT, 1.00E4 nM): -0.206
CXCL9/MIG (/HDF3CT, 1.00E4 nM): -0.053
CXCL10/IP-10 (/HDF3CT, 1.00E4 nM): 0.009
Collagen I (/HDF3CT, 1.00E4 nM): -0.042
M-CSF (/HDF3CT, 1.00E4 nM): -0.068
MMP-1 (/HDF3CT, 1.00E4 nM): 0.035
PAI-I (/HDF3CT, 1.00E4 nM): -0.129
SRB (/HDF3CT, 1.00E4 nM): 0.00189
TIMP-2 (/HDF3CT, 1.00E4 nM): 0.072
CXCL8/IL-8 [1]: 0.063
CXCL9/MIG [1]: 0.141
CXCL10/IP-10 [1]: 0.082
CXCL11/I-TAC [1]: 0.071
EGFR [1]: 0.035
M-CSF [1]: 0.081
MMP-1 [1]: 0.152
PAI-I [1]: 0.049
Proliferation_72hr [1]: 0.007
SRB [1]: 0.029
TIMP-1 [1]: 0.066
TIMP-2 [1]: 0.143
CXCL8/IL-8 [2]: -0.030
CXCL9/MIG [2]: 0.069
CXCL10/IP-10 [2]: 0.062
CXCL11/I-TAC [2]: 0.000639
EGFR [2]: 0.025
M-CSF [2]: 0.039
MMP-1 [2]: 0.095
PAI-I [2]: 0.00174
Proliferation_72hr [2]: 0.026
SRB [2]: -0.013
TIMP-1 [2]: 0.023
TIMP-2 [2]: 0.114
CXCL8/IL-8 [3]: 0.056
CXCL9/MIG [3]: 0.068
CXCL10/IP-10 [3]: 0.052
CXCL11/I-TAC [3]: -0.029
EGFR [3]: 0.009
M-CSF [3]: 0.012
MMP-1 [3]: 0.109
PAI-I [3]: 0.059
Proliferation_72hr [3]: 0.043
SRB [3]: -0.046
TIMP-1 [3]: 0.021
TIMP-2 [3]: 0.081
CXCL8/IL-8 [4]: -0.00424
CXCL9/MIG [4]: 0.019
CXCL10/IP-10 [4]: 0.029
CXCL11/I-TAC [4]: 0.022
EGFR [4]: 0.016
M-CSF [4]: 0.038
MMP-1 [4]: 0.108
PAI-I [4]: 0.005
Proliferation_72hr [4]: 0.043
SRB [4]: -0.011
TIMP-1 [4]: -0.038
TIMP-2 [4]: 0.090
CXCL8/IL-8 [5]: 0.043
CXCL9/MIG [5]: 0.044
CXCL10/IP-10 [5]: 0.051
CXCL11/I-TAC [5]: -0.015
EGFR [5]: 0.031
M-CSF [5]: -0.007
MMP-1 [5]: 0.080
PAI-I [5]: 0.026
Proliferation_72hr [5]: 0.023
SRB [5]: -0.018
TIMP-1 [5]: -0.039
TIMP-2 [5]: 0.105
CCL2/MCP-1 (/HDFNo, 1.00E0 nM): 0.045
CD54/ICAM-1 (/HDFNo, 1.00E0 nM): 0.099
CD106/VCAM-1 (/HDFNo, 1.00E0 nM): 0.066
Collagen I (/HDFNo, 1.00E0 nM): 0.074
Collagen III (/HDFNo, 1.00E0 nM): 0.041
CCL2/MCP-1 (/HDFNo, 1.00E1 nM): 0.107
CD54/ICAM-1 (/HDFNo, 1.00E1 nM): 0.090
CD106/VCAM-1 (/HDFNo, 1.00E1 nM): 0.050
Collagen I (/HDFNo, 1.00E1 nM): 0.084
Collagen III (/HDFNo, 1.00E1 nM): 0.042
CCL2/MCP-1 (/HDFNo, 1.00E2 nM): 0.018
CD54/ICAM-1 (/HDFNo, 1.00E2 nM): 0.060
CD106/VCAM-1 (/HDFNo, 1.00E2 nM): 0.020
Collagen I (/HDFNo, 1.00E2 nM): 0.100
Collagen III (/HDFNo, 1.00E2 nM): 0.061
CCL2/MCP-1 (/HDFNo, 1.00E3 nM): -0.027
CD54/ICAM-1 (/HDFNo, 1.00E3 nM): 0.063
CD106/VCAM-1 (/HDFNo, 1.00E3 nM): 0.049
Collagen I (/HDFNo, 1.00E3 nM): 0.108

From paper PMC5224920, “Assessing the mechanism and therapeutic potential of modulators of the human Mediator complex-associated protein kinases” (eLife, 2016)
